Laboratory results reported in publication PMC4774911, “Biochemical Screening of Five Protein Kinases from Plasmodium falciparum against 14,000 Cell-Active Compounds” (PLoS ONE, 2016).
Like-named read-outs stand apart in the source and are kept apart here.

What was measured:
DD2 [1] = system: DD2; design: method as in F.J. Gamo et al., Nature 2010; conditions: P. falciparum Dd2; downloaded from ChEMBL ref F.J. Gamo et al., Nature 2010; cited from earlier work
[2] = molecular target: T1, Plasmodium falciparum calcium-dependent protein kinase 4 (CDPK4) (Plasmodium falciparum, UniProt Q8IBS5); assay: CDPK4 Kinase-Glo ATP-consumption screen and dose-response; format: biochemical; conditions: hits below 1 uM
T1 construct: 6-Histidine (N); made in house
T1 sequence (Q8IBS5 1-528): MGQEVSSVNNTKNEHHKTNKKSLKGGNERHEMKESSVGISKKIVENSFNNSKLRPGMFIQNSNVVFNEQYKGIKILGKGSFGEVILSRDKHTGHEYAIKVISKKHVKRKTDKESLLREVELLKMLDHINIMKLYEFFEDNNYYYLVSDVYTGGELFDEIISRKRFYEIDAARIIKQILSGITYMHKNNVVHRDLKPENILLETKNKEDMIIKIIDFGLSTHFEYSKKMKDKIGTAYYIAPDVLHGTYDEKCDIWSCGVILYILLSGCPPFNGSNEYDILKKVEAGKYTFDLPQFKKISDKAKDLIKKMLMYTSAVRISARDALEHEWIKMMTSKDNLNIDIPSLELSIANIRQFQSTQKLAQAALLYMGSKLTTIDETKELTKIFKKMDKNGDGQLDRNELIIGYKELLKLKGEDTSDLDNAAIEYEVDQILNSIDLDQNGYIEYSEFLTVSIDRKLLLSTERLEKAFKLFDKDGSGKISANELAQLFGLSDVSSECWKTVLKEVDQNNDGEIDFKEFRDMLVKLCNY
Procedure, shortened: (§1)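 Single-point testing used 1 μM final compound, then dose-response, against CDPK4 and CDPK1 with Syntide-2 (40 μM) as substrate. After 90 min, reactions were halted by 5 mM EGTA, and kinase activity was inferred from depleted ATP via Kinase-Glo luminescence.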

P. falciparum 3D7 cells = conditions: cited from earlier work
[3] = molecular target: T2, Plasmodium falciparum protein kinase 6 (PK6) (Plasmodium falciparum, UniProt Q8IDW1); assay: biochemical; conditions: hits below 1 uM; read-out: PK6 IC50
T2 construct: 6-Histidine (N); made in house
T2 sequence (Q8IDW1 1-305): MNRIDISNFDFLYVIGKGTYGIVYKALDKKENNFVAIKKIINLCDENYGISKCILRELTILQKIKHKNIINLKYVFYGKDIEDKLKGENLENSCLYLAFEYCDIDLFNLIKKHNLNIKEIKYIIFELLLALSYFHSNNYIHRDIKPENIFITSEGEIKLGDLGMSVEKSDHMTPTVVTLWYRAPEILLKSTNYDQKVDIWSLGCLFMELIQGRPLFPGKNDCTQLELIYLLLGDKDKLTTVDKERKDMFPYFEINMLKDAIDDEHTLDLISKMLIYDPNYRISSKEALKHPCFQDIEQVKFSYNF

[4] = molecular target: T3, Plasmodium falciparum calcium-dependent protein kinase 1 (CDPK1) (Plasmodium falciparum, UniProt P62344); assay: CDPK1 Kinase-Glo ATP-consumption screen and dose-response; format: biochemical; conditions: hits below 1 uM; read-out: CDPK1 IC50
T3 construct: 6-Histidine (N); made in house
T3 sequence (P62344 whole entry): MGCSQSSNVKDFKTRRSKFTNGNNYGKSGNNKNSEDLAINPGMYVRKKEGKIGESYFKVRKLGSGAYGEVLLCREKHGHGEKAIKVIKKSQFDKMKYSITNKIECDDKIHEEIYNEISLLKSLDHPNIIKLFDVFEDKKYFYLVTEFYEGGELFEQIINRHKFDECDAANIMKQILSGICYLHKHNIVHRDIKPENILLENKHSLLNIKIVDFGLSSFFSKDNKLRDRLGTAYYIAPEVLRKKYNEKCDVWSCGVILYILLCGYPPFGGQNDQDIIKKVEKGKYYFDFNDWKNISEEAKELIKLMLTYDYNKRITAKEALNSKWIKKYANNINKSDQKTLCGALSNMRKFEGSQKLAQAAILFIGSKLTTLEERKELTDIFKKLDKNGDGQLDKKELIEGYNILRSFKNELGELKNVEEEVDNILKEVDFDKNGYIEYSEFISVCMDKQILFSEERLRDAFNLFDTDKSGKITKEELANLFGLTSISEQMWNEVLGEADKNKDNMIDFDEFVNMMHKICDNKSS
Procedure, shortened: as §1

PKG [5] = molecular target: T4, PKG (Plasmodium falciparum, UniProt Q8I719); assay: PKG IC50 (supplementary data file of hits); format: biochemical
T4 sequence (Q8I719 whole entry): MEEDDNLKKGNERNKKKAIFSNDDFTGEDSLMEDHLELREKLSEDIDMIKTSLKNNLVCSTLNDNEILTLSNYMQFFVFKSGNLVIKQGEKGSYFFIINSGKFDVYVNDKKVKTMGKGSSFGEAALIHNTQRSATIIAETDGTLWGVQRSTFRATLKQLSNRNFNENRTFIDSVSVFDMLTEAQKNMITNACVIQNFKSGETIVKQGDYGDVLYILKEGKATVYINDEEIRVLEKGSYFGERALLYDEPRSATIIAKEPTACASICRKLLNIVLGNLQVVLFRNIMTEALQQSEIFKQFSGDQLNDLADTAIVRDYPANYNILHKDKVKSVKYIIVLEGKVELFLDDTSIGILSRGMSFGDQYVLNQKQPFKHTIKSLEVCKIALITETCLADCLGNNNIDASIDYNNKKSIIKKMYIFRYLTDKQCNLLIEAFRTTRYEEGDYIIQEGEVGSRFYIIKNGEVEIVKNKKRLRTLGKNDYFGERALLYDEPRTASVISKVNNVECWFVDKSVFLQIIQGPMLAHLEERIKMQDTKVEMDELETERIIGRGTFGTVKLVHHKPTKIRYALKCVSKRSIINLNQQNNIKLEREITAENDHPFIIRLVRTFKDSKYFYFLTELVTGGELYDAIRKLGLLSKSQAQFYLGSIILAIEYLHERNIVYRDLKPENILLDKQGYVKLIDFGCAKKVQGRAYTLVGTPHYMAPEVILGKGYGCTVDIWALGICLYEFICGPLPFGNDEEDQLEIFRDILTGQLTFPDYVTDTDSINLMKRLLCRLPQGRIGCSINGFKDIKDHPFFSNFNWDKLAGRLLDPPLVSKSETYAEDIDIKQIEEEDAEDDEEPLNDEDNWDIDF
Text: (§2) Supplement pone.0149996.s003.xls, sheet "combined_1_sorted"

3D7 PFLDH [6] = system: 3D7 PFLDH; design: method as in F.J. Gamo et al., Nature 2010; conditions: downloaded from ChEMBL ref F.J. Gamo et al., Nature 2010; cited from earlier work
HepG2 cells = conditions: cited from earlier work
PKG [7] = molecular target: T4, PKG; assay: PKG IC50 (supplementary data file); format: biochemical
Text: as §2

DD2 [8] = system: DD2; design: method as in F.J. Gamo et al., Nature 2010; conditions: downloaded from ChEMBL, ref F.J. Gamo et al., Nature 2010; cited from earlier work
3D7 PFLDH [9] = system: 3D7 PFLDH; design: method as in F.J. Gamo et al., Nature 2010; concentration or dose not given beside the values; conditions: downloaded from ChEMBL, ref F.J. Gamo et al., Nature 2010; cited from earlier work
[10] = molecular target: T3, Plasmodium falciparum calcium-dependent protein kinase 1 (CDPK1); assay: biochemical; design: Kinase-Glo luminescence ATP depletion, Syntide-2 substrate, 10 uM ATP, CDPK1 or CDPK4
Experimental: Biochemical assays were performed in white 384-well plates (Nunc). Liquid transfers were done manually with 8-channel pipets. Compounds were initially tested in a single-point screen (final concentration 1 μM). […] (In the PK6 and PK7 screens, Z’ factors were suboptimal, so apparent hits were retested at 1 μM before proceeding with dose-response tests.) All incubations were at room temperature (~20°C). The catalytic activity of each kinase was considered proportional to ATP consumed, as determined from measurements of residual [ATP] with the luciferase-based reagent Kinase-Glo (Promega) following incubation. Luminescence (proportional to residual [ATP]) was measured on the plate readers FLx800 (BioTek Instruments, Winooski, VT, USA) and MicroBeta^2 (PerkinElmer, Waltham, MA, USA). Incubation times were chosen to ensure near-complete ATP depletion in the absence of inhibition, thus maximizing the difference in signal between inhibited and uninhibited wells. […] 40 μM Syntide-2 was used as a substrate; BKI-1 [14] was used as a control inhibitor, while reaction mixtures lacking Syntide-2 were included as an additional negative control. Incubation time was 90 minutes. Reactions were terminated by adding excess EGTA (5 mM), which sequesters Ca^2+ and halts calcium-dependent kinase activity.

[11] = system: Plasmodium falciparum mitogen-associated protein kinase 2 (MAPK2/MAP2); assay: MAPK2 Kinase-Glo ATP-consumption screen; format: biochemical; conditions: concentrations of 10–30 μM
Experimental: Biochemical assays were performed in white 384-well plates (Nunc). Liquid transfers were done manually with 8-channel pipets. Compounds were initially tested in a single-point screen (final concentration 1 μM). […] The catalytic activity of each kinase was considered proportional to ATP consumed, as determined from measurements of residual [ATP] with the luciferase-based reagent Kinase-Glo (Promega) following incubation. Luminescence (proportional to residual [ATP]) was measured on the plate readers FLx800 (BioTek Instruments, Winooski, VT, USA) and MicroBeta^2 (PerkinElmer, Waltham, MA, USA). Incubation times were chosen to ensure near-complete ATP depletion in the absence of inhibition, thus maximizing the difference in signal between inhibited and uninhibited wells.
Final concentrations were 1 μM ATP, 0.5 mM DTT, 1 mM MgCl2, 0.5 mg/mL BSA, and 10 μg/ml MAP2 in a buffer of 50 mM HEPES (pH 7.0). 0.5 mg/mL histone III-S served as the substrate; 100 μM AMP-PNP, an ATP analog, was used as a control inhibitor. Incubation time was 4 hours.

DD2 [12] = system: DD2; design: method as in downloaded from ChEMBL; conditions: ref downloaded from ChEMBL; cited from earlier work
3D7 PFLDH [13] = system: 3D7 PFLDH; design: method as in downloaded from ChEMBL; conditions: ref downloaded from ChEMBL; cited from earlier work
[14] = molecular target: Plasmodium falciparum protein kinase 7 (PK7) (Plasmodium falciparum, UniProt Q7YTF7); assay: PK7 Kinase-Glo intrinsic ATPase (autophosphorylation) screen and dose-response; format: biochemical; conditions: hits below 1 uM
Chain of Plasmodium falciparum protein kinase 7 (PK7) (Q7YTF7 entry or part of it): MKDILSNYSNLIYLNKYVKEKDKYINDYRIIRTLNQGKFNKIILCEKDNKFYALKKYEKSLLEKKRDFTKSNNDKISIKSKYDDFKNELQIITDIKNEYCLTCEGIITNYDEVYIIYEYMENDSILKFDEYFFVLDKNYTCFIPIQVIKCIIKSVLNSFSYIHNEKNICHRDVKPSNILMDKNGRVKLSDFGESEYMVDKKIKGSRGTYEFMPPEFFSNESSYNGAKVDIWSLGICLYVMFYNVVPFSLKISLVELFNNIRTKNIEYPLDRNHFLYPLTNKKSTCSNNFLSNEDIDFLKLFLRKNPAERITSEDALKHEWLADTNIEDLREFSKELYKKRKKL
Experimental: Biochemical assays were performed in white 384-well plates (Nunc). Liquid transfers were done manually with 8-channel pipets. Compounds were initially tested in a single-point screen (final concentration 1 μM). […] (In the PK6 and PK7 screens, Z’ factors were suboptimal, so apparent hits were retested at 1 μM before proceeding with dose-response tests.) All incubations were at room temperature (~20°C). The catalytic activity of each kinase was considered proportional to ATP consumed, as determined from measurements of residual [ATP] with the luciferase-based reagent Kinase-Glo (Promega) following incubation. Luminescence (proportional to residual [ATP]) was measured on the plate readers FLx800 (BioTek Instruments, Winooski, VT, USA) and MicroBeta^2 (PerkinElmer, Waltham, MA, USA). Incubation times were chosen to ensure near-complete ATP depletion in the absence of inhibition, thus maximizing the difference in signal between inhibited and uninhibited wells.
Final concentrations were 1 μM ATP, 2 mM DTT, 20 mM MgCl2, 2 mM MnCl2, 0.01% BSA, and 6 μg/ml PK7 in a buffer of 20 mM Tris-HCl (pH 7.5). The enzyme itself was the only substrate present (since autophosphorylation occurs); 100 μM 1NA-PP1 [24] was used as a control inhibitor. Incubation time was 3 hours.

[15] = P. falciparum 3D7, downloaded from ChEMBL ref F.J. Gamo et al., Nature 2010
[16] = HepG2 cells, downloaded from ChEMBL ref F.J. Gamo et al., Nature 2010
[17] = 3D7, downloaded from ChEMBL, ref F.J. Gamo et al., Nature 2010
[18] = 3D7, ref downloaded from ChEMBL
[19] = HEPG2, ref downloaded from ChEMBL

SMILES	PCT_INHB_DD2 (DD2 [1])	IC50 [2] [nM]	PCT_IHB_3D7 (P. falciparum 3D7 cells; [15])	pXC50_3D7 (P. falciparum 3D7 cells; [15])	IC50 [3] [nM]	IC50 [4] [nM]	IC50 (PKG [5]) [nM]	PCT_INHIB_3D7_PFLDH (3D7 PFLDH [6])	PCT_INHIB_HEPG2 (HepG2 cells; [16])	other results
CC(=O)Nc1cccc(Nc2nccc(-c3c(-c4cccc(NC(=O)c5c(F)cccc5F)c4)nn4ncccc34)n2)c1 [TCMDC-135548]	51	26	96	6.736	144	15	524	5	83	
Cc1cc(Nc2ncc(C#N)c(Nc3ccccc3C(N)=O)n2)ccc1N1CCN(C)CC1.Cl [TCMDC-134115]		89			54					IC50 (PKG [7]): 63 nM; PCT_INHB_DD2 (DD2 [8]): 94%; PCT_IHB_3D7 (P. falciparum 3D7 cells; [17]): 94%; pXC50_3D7 (P. falciparum 3D7 cells; [17]): 8.064; PCT_INHIB_3D7_PFLDH (3D7 PFLDH [9]): 0%; PCT_INHIB_HEPG2 (HepG2 cells; HepG2, downloaded from ChEMBL, ref F.J. Gamo et al., Nature 2010): 99%; IC50 [10]: 10.4 nM
Cc1ccc(-n2nc(C(C)(C)C)cc2NC(=O)Nc2ccc(OCCN3CCOCC3)c3ccccc23)cc1 [BIRB796]										Inhibition of MAPK2 (tested as possible control inhibitor) [11]: None gave consistent inhibition
OC1CCC(Nc2ccc3ncc(-c4ccc(Cl)cc4)n3n2)CC1 (stereo not drawn) [TCMDC-136693]						503				PCT_IHB_3D7 (P. falciparum 3D7 cells; [18]): 97; pXC50_3D7 (P. falciparum 3D7 cells; [18]): 6.084; PCT_INHB_DD2 (DD2 [12]): 98; PCT_INHIB_3D7_PFLDH (3D7 PFLDH [13]): 0; IC50 [14]: 438 nM; PCT_INHIB_HEPG2 (HepG2 cells; [19]): 57
NC1=NC(=O)/C(=C2\CCNC(=O)c3[nH]c(Br)cc32)N1 [hymenialdisine]										Inhibition of MAPK2 (tested as possible control inhibitor) [11]: None gave consistent inhibition
CC(C)(CN)c1nc(-c2ccc(Cl)c(O)c2)c(-c2ccncc2)[nH]1.Cl [TCMDC-140369]	98		97	6.122				0	34	IC50 [10]: 10.5 nM
O=C(O)c1ccc(-c2cnc3ccc(NC4CCC(O)CC4)nn23)cc1 (stereo not drawn) [TCMDC-136692]										PCT_IHB_3D7 (P. falciparum 3D7 cells; [18]): 98; pXC50_3D7 (P. falciparum 3D7 cells; [18]): 6.002; PCT_INHB_DD2 (DD2 [12]): 90; PCT_INHIB_3D7_PFLDH (3D7 PFLDH [13]): 3; IC50 [14]: 419 nM; PCT_INHIB_HEPG2 (HepG2 cells; [19]): 9
CCN(CC)CCCOc1ccc(Nc2nccc(-c3c(-c4cccc(NC(=O)c5c(F)cccc5F)c4)nn4ccccc34)n2)cc1F [TCMDC-135920]	99	86	100	6.39	302	429	131	0	86	
CS(=O)(=O)Cc1ccc(Nc2nccc(-c3c(-c4cccc(NC(=O)C5CCCCC5)c4)nn4ncccc34)n2)cc1 [TCMDC-135812]	99	67	98	6.697	139	37	> 10000	0	31	
CC(c1cccc(Nc2nccc(-c3c(-c4cccc(NC(=O)c5c(F)cccc5F)c4)nn4ncccc34)n2)c1)S(C)(=O)=O (stereo not drawn) [TCMDC-135696]	98	24	98	7.341	375	95	> 10000	4	79	
CS(=O)(=O)Cc1ccc(Nc2nccc(-c3c(-c4cccc(C(=O)Nc5c(F)cccc5F)c4)nn4ccccc34)n2)cc1 [TCMDC-135742]	92	65	96	6.274	105	50	> 10000	0	85	
O=C(Nc1cccc(-c2nn3ccccc3c2-c2ccnc(Nc3cccc(-c4cnco4)c3)n2)c1)C1CCCCC1 [TCMDC-135769]	99	612	95	6.584		164	> 10000	0	71	
O=C1Nc2ccc3ncsc3c2/C1=C/Nc1ccc(S(=O)(=O)Nc2ccccn2)cc1 [GW8510]										Inhibition of MAPK2 (tested as possible control inhibitor) [11]: None gave consistent inhibition
